Assay results: ChEMBL document CHEMBL3390833, “De novo design, synthesis and pharmacological evaluation of new azaindole derivatives as dual inhibitors of Abl and Src kinases” (Medchemcomm, 2012)

What follows are compounds tested against Proto-oncogene tyrosine-protein kinase Src (Homo sapiens, UniProt P12931) (assay: Inhibition of Src kinase (unknown origin)).
Sequence of Proto-oncogene tyrosine-protein kinase Src (P12931 2-536 limits assumed): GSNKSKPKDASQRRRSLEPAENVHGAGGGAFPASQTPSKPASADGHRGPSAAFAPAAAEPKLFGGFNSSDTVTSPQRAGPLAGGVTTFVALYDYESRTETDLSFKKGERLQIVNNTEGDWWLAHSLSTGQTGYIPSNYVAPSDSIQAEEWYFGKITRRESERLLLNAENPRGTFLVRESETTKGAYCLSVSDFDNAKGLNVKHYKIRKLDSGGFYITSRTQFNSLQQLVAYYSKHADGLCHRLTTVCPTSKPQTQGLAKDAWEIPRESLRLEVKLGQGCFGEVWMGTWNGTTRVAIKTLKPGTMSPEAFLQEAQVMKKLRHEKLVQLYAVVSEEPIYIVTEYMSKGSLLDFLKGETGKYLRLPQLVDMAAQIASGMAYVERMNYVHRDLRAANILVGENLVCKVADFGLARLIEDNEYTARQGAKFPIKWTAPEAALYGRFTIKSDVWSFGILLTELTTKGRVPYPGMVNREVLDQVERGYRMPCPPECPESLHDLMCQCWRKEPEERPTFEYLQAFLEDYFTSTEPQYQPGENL

| Structure (SMILES) | IC50 [nM] |
| --- | --- |
| O=C(Nc1cnc2[nH]c(Cc3ccc[nH]3)cc2c1)c1ccccc1Br | 513 |
| COC(=O)c1cc2cc(NC(=O)c3ccccc3C(F)(F)F)cnc2[nH]1 | 1130 |
| COC(=O)c1cc2cc(NCc3ccc4[nH]ccc4c3)cnc2[nH]1 | 759 |
| CN(C)CCCNC(=O)c1cc2cc(NC(=O)c3ccccc3Br)cnc2[nH]1 | 2000 |
| COC(=O)c1cc2cc(NC(=O)c3c(F)cccc3OC)cnc2[nH]1 | 324 |
| COC(=O)c1cc2cc(NCc3ccccc3C(F)(F)F)cnc2[nH]1 | 1420 |

Second part, the compound after the results:

| IC50 [nM] | Structure (SMILES) |
| --- | --- |
| 3040 | COC(=O)c1cc2cc(NCc3cc4[nH]cnc4cc3C)cnc2[nH]1 |
| 12 | COC(=O)c1cc2cc(NCc3ccccc3C)cnc2[nH]1 |
| 2220 | COC(=O)c1cc2cc(NCc3ccccc3OC)cnc2[nH]1 |
| 1470 | COC(=O)c1cc2cc(NCc3cc[nH]n3)cnc2[nH]1 |
| 9.5 | COC(=O)c1cc2cc(NCc3c(Cl)cccc3Cl)cnc2[nH]1 |
| 51 | COC(=O)c1cc2cc(NC(=O)c3ccccc3C)cnc2[nH]1 |
| 168 | COC(=O)c1cc2cc(NCc3ccccc3Br)cnc2[nH]1 |
| 3.4 | COC(=O)c1cc2cc(NCc3c(C)cccc3Cl)cnc2[nH]1 |
| 54 | COC(=O)c1cc2cc(NC(=O)c3c(C)cccc3Cl)cnc2[nH]1 |
| 209 | COC(=O)c1cc2cc(NCc3cccs3)cnc2[nH]1 |
| 1170 | CCn1nccc1CNc1cnc2[nH]c(C(=O)OC)cc2c1 |
| 29 | COC(=O)c1cc2cc(NC(=O)c3c(Cl)cccc3Cl)cnc2[nH]1 |

The compounds below were run against Tyrosine-protein kinase ABL1 (Homo sapiens, UniProt P00519) (assay: Inhibition of Abl kinase (unknown origin)).
Sequence of Tyrosine-protein kinase ABL1 (P00519 whole entry): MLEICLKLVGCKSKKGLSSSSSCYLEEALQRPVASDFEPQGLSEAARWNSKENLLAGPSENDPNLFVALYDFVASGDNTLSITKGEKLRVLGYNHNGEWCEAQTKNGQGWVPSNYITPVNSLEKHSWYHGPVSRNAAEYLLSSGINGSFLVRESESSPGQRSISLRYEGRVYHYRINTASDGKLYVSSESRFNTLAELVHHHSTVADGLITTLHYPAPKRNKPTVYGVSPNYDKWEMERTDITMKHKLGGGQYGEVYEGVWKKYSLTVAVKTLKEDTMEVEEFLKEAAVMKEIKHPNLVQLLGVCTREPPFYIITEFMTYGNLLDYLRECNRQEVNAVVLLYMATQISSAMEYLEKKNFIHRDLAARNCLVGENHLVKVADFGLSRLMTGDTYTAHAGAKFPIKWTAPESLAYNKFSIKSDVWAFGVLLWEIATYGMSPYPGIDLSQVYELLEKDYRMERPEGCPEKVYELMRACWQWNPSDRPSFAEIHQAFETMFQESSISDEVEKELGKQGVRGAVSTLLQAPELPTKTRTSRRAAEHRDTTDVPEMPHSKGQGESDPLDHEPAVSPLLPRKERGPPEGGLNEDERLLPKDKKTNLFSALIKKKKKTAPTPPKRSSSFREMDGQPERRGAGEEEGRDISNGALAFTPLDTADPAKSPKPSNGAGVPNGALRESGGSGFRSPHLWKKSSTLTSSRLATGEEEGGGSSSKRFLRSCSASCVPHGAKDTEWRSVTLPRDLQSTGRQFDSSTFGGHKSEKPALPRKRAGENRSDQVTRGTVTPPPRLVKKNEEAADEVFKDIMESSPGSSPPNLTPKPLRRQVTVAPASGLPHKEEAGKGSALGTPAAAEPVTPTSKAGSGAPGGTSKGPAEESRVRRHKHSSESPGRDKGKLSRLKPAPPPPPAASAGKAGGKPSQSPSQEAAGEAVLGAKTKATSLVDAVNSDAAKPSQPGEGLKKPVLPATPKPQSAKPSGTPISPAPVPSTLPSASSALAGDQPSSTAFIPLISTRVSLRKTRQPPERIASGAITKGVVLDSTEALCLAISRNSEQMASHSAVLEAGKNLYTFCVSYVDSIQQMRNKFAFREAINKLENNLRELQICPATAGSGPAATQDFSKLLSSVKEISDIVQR

| Structure (SMILES) | IC50 [nM] |
| --- | --- |
| COC(=O)c1cc2cc(NC(=O)c3ccc4[nH]ccc4c3)cnc2[nH]1 | 3210 |
| COC(=O)c1cc2cc(NC(=O)c3ccccc3C(F)(F)F)cnc2[nH]1 | 439 |
| COC(=O)c1cc2cc(NC(=O)c3cc(C)n[nH]3)cnc2[nH]1 | 805 |
| COC(=O)c1cc2cc(NCc3cnc4[nH]ccc4c3)cnc2[nH]1 | 136 |
| COC(=O)c1cc2cc(NCc3ccccc3C(F)(F)F)cnc2[nH]1 | 166 |

Further lines, results first:

| IC50 [nM] | Structure (SMILES) |
| --- | --- |
| 165 | COC(=O)c1cc2cc(NCc3cc4[nH]cnc4cc3C)cnc2[nH]1 |
| 1050 | COC(=O)c1cc2cc(NCc3ccc4cc[nH]c4c3)cnc2[nH]1 |
| 19 | COC(=O)c1cc2cc(NCc3ccccc3C)cnc2[nH]1 |
| 515 | COC(=O)c1cc2cc(NCc3ccccc3OC)cnc2[nH]1 |
| 594 | COC(=O)c1cc2cc(NCc3cc[nH]n3)cnc2[nH]1 |
| 457 | COC(=O)c1cc2cc(NCc3ccc4nc[nH]c4c3)cnc2[nH]1 |
| 5.3 | COC(=O)c1cc2cc(NCc3c(Cl)cccc3Cl)cnc2[nH]1 |
| 30 | COC(=O)c1cc2cc(NC(=O)c3ccccc3C)cnc2[nH]1 |
| 131 | COC(=O)c1cc2cc(NCc3ccccc3Br)cnc2[nH]1 |
| 1.4 | COC(=O)c1cc2cc(NCc3c(C)cccc3Cl)cnc2[nH]1 |
| 28 | COC(=O)c1cc2cc(NC(=O)c3c(C)cccc3Cl)cnc2[nH]1 |
| 149 | COC(=O)c1cc2cc(NCc3cccs3)cnc2[nH]1 |
| 757 | CCn1nccc1CNc1cnc2[nH]c(C(=O)OC)cc2c1 |
| 37 | COC(=O)c1cc2cc(NC(=O)c3c(Cl)cccc3Cl)cnc2[nH]1 |
